Results from the supplement of paper PMC10307832.

Assays:
Test in all cases: relative viability (nuclei count vs DMSO), 5 days (fraction); higher = more cells survive
QS11 + Navitoclax = compound: C1CC2=C(C1)C=C(C=C2)OC3=NC(=C4C(=N3)N(C=N4)CC5=CC=C(C=C5)C6=CC=CC=C6)N[C@@H](CC7=CC=CC=C7)CO [QS11] + CC1(C)CCC(c2ccc(Cl)cc2)=C(CN2CCN(c3ccc(C(=O)NS(=O)(=O)c4ccc(N[C@H](CCN5CCOCC5)CSc5ccccc5)c(S(=O)(=O)C(F)(F)F)c4)cc3)CC2)C1 [Navitoclax] (partner 0.5 µM)
Summary of the method: (§1)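 Lung cancer cell lines in 1536-well plates got either a single drug or a fixed anchor-drug dose together with five library-drug doses (not always all listed) in √10 steps, by pin tool, on the day after seeding. Nuclei were counted after 5 days, and relative viability is the treated-to-vehicle ratio of nuclei counts. Values are medians of duplicate plates.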

Darinaparsin + Dasatinib = compound: C[As](C)SC[C@H](NC(=O)CC[C@H](N)C(=O)O)C(=O)NCC(=O)O [Darinaparsin] + Cc1nc(Nc2ncc(C(=O)Nc3c(C)cccc3Cl)s2)cc(N2CCN(CCO)CC2)n1 [Dasatinib] (partner 0.075 µM)
Summary of the method: as §1

QS11 + Lapatinib = compound: C1CC2=C(C1)C=C(C=C2)OC3=NC(=C4C(=N3)N(C=N4)CC5=CC=C(C=C5)C6=CC=CC=C6)N[C@@H](CC7=CC=CC=C7)CO [QS11] + CS(=O)(=O)CCNCc1ccc(-c2ccc3ncnc(Nc4ccc(OCc5cccc(F)c5)c(Cl)c4)c3c2)o1 [Lapatinib] (partner 2 µM)
Summary of the method: as §1

AZ628 + Vorinostat = compound: CC1=C(C=C(C=C1)NC(=O)C2=CC(=CC=C2)C(C)(C)C#N)NC3=CC4=C(C=C3)N=CN(C4=O)C [AZ628] + O=C(CCCCCCC(=O)Nc1ccccc1)NO [Vorinostat] (partner 1 µM)
Summary of the method: as §1

Cell Line | relative viability (QS11 + Navitoclax; first compound 0.08 µM) | relative viability (QS11 + Navitoclax; first compound 0.253 µM) | relative viability (QS11 + Navitoclax; first compound 0.8 µM) | relative viability (QS11 + Navitoclax; first compound 2.53 µM) | relative viability (QS11 + Navitoclax; first compound 8 µM) | relative viability (Darinaparsin + Dasatinib; first compound 0.08 µM) | relative viability (Darinaparsin + Dasatinib; first compound 0.8 µM) | relative viability (Darinaparsin + Dasatinib; first compound 2.53 µM) | relative viability (Darinaparsin + Dasatinib; first compound 8 µM) | relative viability (QS11 + Lapatinib; first compound 0.08 µM) | relative viability (QS11 + Lapatinib; first compound 0.253 µM) | relative viability (QS11 + Lapatinib; first compound 0.8 µM) | relative viability (QS11 + Lapatinib; first compound 2.53 µM) | relative viability (QS11 + Lapatinib; first compound 8 µM) | relative viability (AZ628 + Vorinostat; first compound 0.08 µM) | relative viability (AZ628 + Vorinostat; first compound 0.253 µM) | relative viability (AZ628 + Vorinostat; first compound 0.8 µM) | relative viability (AZ628 + Vorinostat; first compound 2.53 µM) | relative viability (AZ628 + Vorinostat; first compound 8 µM)
201T | 1.19 | 1.22 | 0.994 | 1.24 | 1.17 | 0.571 | 0.533 | 0.66 | 0.627 | 1.05 | 0.835 | 0.834 | 1.11 | 0.895 | 1.06 | 1.02 | 1.08 | 1.04 | 1.08
A549 | 1.2 | 1.37 | 1.21 | 1.06 | 0.808 |  |  |  |  | 1.04 | 1.14 | 0.621 | 0.886 | 0.764 |  |  |  |  | 
A-427 | 0.992 | 1.02 |  | 1.02 | 1.01 | 0.843 | 0.809 | 0.707 | 0.733 | 0.881 | 1.08 |  | 1.12 | 1.07 | 1.02 | 0.811 | 0.82 | 0.787 | 0.437
ABC-1 |  |  |  |  |  | 0.56 | 0.451 | 0.572 | 0.715 | 1.18 | 1.44 | 1.16 | 1.16 | 1.47 | 1.26 | 0.789 | 1.27 | 0.955 | 1.07
BEN | 0.0566 | 0.0797 | 0.0702 | 0.047 | 0.0634 | 0.305 | 0.308 | 0.31 | 0.371 | 0.555 | 0.89 | 0.864 | 0.781 | 1.19 | 0.615 | 0.513 | 0.571 | 0.557 | 0.589
CAL-12T | 1.18 | 1.39 | 1.15 | 1.08 | 1.14 | 0.337 | 0.381 | 0.234 | 0.315 | 0.631 | 0.601 | 0.595 | 0.652 | 0.68 | 0.802 | 0.634 | 0.643 | 0.522 | 0.417
COR-L23 | 1.06 | 0.922 | 0.818 | 0.865 | 0.761 | 0.694 | 0.493 | 0.39 | 0.497 | 1.1 | 1.08 | 0.68 | 0.582 | 0.849 | 0.528 | 0.426 | 0.491 | 0.473 | 0.321
COR-L 105 | 0.77 | 0.618 | 0.788 | 0.733 | 0.83 | 0.32 | 0.31 | 0.309 | 0.277 | 0.38 | 0.363 | 0.343 | 0.412 | 0.396 | 0.881 | 0.886 | 0.796 | 0.794 | 0.654
Calu-6 | 1.08 | 0.844 | 0.872 | 1.01 | 0.901 |  |  |  |  | 1.11 | 1.07 | 0.969 | 1.31 | 1.12 |  |  |  |  | 
ChaGo-K-1 |  | 1.01 | 1.42 | 1.66 | 1.21 | 0.525 | 0.611 | 0.72 | 0.649 |  |  |  |  |  | 0.773 | 0.75 | 0.753 | 0.754 | 0.743
